# Experimental data from US4490388A, “Amidine compound and anticomplement agent comprising same” (Torii & Co., Ltd., priority 1981, dated 1984).
# Tests used:
# complement [1] = assay: Inhibition of complement mediated hemolysis; type: cell-based; settings: read-out: Inhibition of complement mediated hemolysis (%)
# Experimental: The complement mediated hemolysis is widely used as a means to determine the titration of complement. The principle of this method is based on the fact that hemolysis is caused by the activation of complement, when the latter is added to a complex (immune complex) of erythrocytes and the autibody thereof. The degree of hemolysis varies in proportion to the amount of complement added. Therefore, when a known amount of complement admixed with a C1 esterase inhibitor is used, the hemolysis must be suppressed in proportion to the inhibitory activity.
# The anti-C1 esterase (C1r, C1s) activity was determined according to the method of Okamura et al. [K. Okamura, M. Muramatsu and B. Fujii, Biochem. Biophys. […] The inhibition of complement mediated hemolysis was determined according to the method of Baker et al. [B. R. Baker and E. H. Erickson, J. Med. Chem., 12, 408-414 (1969)].
# C1s = target: T1, C1s (Homo sapiens, UniProt P09871); assay: Anti-C1 esterase activity, C1s (hydrolysis of ATEE); type: biochemical
# T1 sequence (P09871 438-688 limits assumed): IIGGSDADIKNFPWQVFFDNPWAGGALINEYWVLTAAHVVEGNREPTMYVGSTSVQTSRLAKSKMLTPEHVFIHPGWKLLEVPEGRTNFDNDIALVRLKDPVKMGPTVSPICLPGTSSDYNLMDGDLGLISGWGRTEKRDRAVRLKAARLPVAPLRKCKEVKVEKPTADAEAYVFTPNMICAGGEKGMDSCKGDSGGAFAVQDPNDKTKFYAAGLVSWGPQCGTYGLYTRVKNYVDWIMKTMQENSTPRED
# T1 sequence (P09871 16-437 partner limits assumed): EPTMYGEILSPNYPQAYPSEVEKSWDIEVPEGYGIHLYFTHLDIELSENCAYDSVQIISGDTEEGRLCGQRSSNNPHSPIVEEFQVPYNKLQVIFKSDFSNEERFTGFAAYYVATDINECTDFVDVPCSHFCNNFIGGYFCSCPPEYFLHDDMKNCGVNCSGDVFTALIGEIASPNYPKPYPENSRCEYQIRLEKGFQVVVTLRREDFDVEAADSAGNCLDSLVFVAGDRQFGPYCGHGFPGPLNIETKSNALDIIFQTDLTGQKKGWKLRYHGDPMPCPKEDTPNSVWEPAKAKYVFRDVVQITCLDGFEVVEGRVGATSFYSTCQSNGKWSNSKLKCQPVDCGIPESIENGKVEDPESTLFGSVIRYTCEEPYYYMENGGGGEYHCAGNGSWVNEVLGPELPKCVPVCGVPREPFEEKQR
# Experimental: The anti-C1 esterase (C1r, C1s) activity was determined according to the method of Okamura et al. [K. Okamura, M. Muramatsu and B. Fujii, Biochem. Biophys. Acta, 295, 252-257 (1973)]. The inhibition of complement mediated hemolysis was determined according to the method of Baker et al. [B. R. Baker and E. H. Erickson, J. Med. Chem., 12, 408-414 (1969)]. The figures in Table 2 have the following meanings:
# C1s: Molar concentration of the test compound which inhibits 50% of the ability of C1s to hydrolyse ATEE (acetyltyrosin ethyl ester).
# C1r = target: T2, C1r (Homo sapiens, UniProt P00736); assay: Anti-C1 esterase activity, C1r (hydrolysis of AAME); type: biochemical; settings: molar concentration inhibiting 50% of AAME hydrolysis; read-out: Anti-C1 activity, C1r id50
# T2 sequence (P00736 464-705 limits assumed): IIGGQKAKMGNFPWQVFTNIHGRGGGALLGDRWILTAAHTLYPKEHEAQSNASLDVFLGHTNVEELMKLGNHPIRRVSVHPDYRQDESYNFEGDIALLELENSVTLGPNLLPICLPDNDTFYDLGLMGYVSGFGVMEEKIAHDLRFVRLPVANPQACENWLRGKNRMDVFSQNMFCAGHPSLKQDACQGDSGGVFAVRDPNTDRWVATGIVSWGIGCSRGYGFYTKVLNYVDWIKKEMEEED
# T2 sequence (P00736 18-463 partner limits assumed): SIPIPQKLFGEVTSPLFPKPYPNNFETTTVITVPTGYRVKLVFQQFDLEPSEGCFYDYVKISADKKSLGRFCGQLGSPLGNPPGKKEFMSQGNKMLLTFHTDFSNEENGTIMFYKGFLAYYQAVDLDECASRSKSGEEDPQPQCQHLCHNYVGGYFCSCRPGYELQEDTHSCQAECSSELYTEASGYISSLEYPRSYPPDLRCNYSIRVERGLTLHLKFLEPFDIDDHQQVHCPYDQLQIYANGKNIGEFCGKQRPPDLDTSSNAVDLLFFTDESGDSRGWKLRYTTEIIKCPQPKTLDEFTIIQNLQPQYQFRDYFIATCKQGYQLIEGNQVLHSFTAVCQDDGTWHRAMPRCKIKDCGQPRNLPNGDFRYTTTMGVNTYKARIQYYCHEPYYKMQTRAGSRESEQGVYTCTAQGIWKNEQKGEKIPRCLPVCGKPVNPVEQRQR
# Experimental: The anti-C1 esterase (C1r, C1s) activity was determined according to the method of Okamura et al. [K. Okamura, M. Muramatsu and B. Fujii, Biochem. Biophys. […] The figures in Table 2 have the following meanings:
# C1r: Molar concentration of the test compound which inhibits 50% of the ability of C1r to hydrolyse AAME (acetylarginin methyl ester) (id50).
# complement [2] = settings: Y. Takada et al., Immunology 34, 509-515 (1978); cited from earlier work
structure (smiles),measurement,setting,value
"CC(=O)N[C@@H](CC(C)C)C(=O)N[C@@H](CC(C)C)C(=O)N[C@H](C=O)CCCNC(=N)N [Leupeptin, reference compound]",inhibition at 0.1 µM,complement [1],0%
same,inhibition at 1 µM,complement [1],0%
same,inhibition at 10 µM,complement [1],52%
same,inhibition at 100 µM,complement [1],97%
same,IC50,C1s,20 µM
same,IC50,C1r,200 µM
same,anti-complement activity (in words),complement [2],anti-complement activity
